Reference: US11331376B2, “Oral administration of unstable or poorly-absorbed drugs” (InnoPharmax, Inc., priority 2014, dated 2022)

Key:
[1] = system: STZ-induced diabetic mice; test: In vivo hypoglycemic study, blood glucose after oral gavage in STZ-induced diabetic mice; parameters: species or system male C57BL/6JNarl mice
Description: Diabetes was induced in male C57BL/6JNarl mice (8 weeks age, around 20 grams body weight) by two tail vein injections of streptozotocin (STZ) (first: 75 mg/kg, second: 150 mg/kg). Induction of diabetes in mice was verified by measuring glucose concentration in a blood sample that was obtained from the tail vein. […] An composition containing 200 IU/kg of insulin was administered by oral gavage to each of eight STZ-induced diabetic mice in three groups (i.e., 24 mice total). A first group each received free non-modified insulin suspended in about 160-230 microliters (depending on animal weight) of a 3.78% (w/w) NaHCO3 antacid solution. A second group each received insulin in the form of Formulation 1 suspended in about 160-230 microliters of phosphate-buffered saline (PBS). A third group received Formulation 1 insulin in the form of Formulation 1 suspended in about 160-230 microliters of a 3.78% (w/w) NaHCO3 antacid solution (i.e., a ten-fold dilution of Formulation 1). […] Blood samples were drawn from each mouse following gavage, and blood glucose levels in those samples were determined. […] Drug remaining in the formulation was analyzed, and in vivo potency was also assessed by administering insulin formulation into streptozotocin-induced diabetic mice and measuring blood glucose with a glucometer.

[2] = system: Caco-2 cell monolayers
Description: Caco-2 cells were cultured at 37±2 degrees Celsius in minimum essential medium (MEM) with Eagles salt and 1-glutamine supplemented with 15% fetal bovine serum, with 1% of non-essential amino acid, and with 1% of antibiotic-antimycotic in a incubator under a 5% carbon dioxide atmosphere to simulate intestinal lining cells.
At time zero, medium on one face of the cell monolayer was replaced by 0.5 milliliter of a solution that included one of Formulation 1, 2, or 3 or of insulin not incorporated into a SMEDDS-containing formulation. The solution was diluted ten-fold with medium (i.e., one part insulin-containing solution and nine parts buffer) prior to application to the monolayer. Thirty minutes following this replacement, insulin content at the basolateral face of the monolayer was analyzed by HPLC. The permeability coefficient (Papp) was calculated from the following equation: Papp=(dQ/dt)/(C0×area), where dQ/dt is the linear appearance rate obtained from the profile of the transported amount of the substrate against the time (measured in micrograms per second); C0 is a measured initial concentration in the donor compartment (measured in micrograms per milliliter), and “area” is the membrane surface area of the cell monolayer.

Substance: free insulin: non-modified human insulin not combined with a SMEDDS-containing composition
- blood glucose levels at any time point ([1]; 200 IU/kg free insulin solution by oral gavage): No significant differences in the blood glucose levels
- blood glucose levels over study period ([1]; 200 IU/kg oral gavage, free insulin in 3.78% NaHCO3 antacid solution): did not vary significantly
- trans-monolayer transport of insulin [2]: No trans-monolayer transport
